Measured values as given in patent US20220002674A1, “T CELLS WITH SUICIDE SWITCH” (priority 2018, published 2022).

Key:
[1] = system: AOS-1 T cells; assay: 4-hour apoptosis assay with 10 nM rimiducid on AOS-1 T cells sorted by CD19 intensity; assay type: cell-based, human; conditions: for CD19+ specific killing: low-CD19 sorted cells; for median killing efficacy: 10 nM, 4 hours
Description: To measure apoptosis 5×10^5 cells were plated per 48-well, and rimiducid was added at a concentration of 10 nM in a 4-hour assay. Phenotyping and functional assays (e.g., apoptosis) were performed by flow cytometry, qPCR and Western blot before and after T cell reactivation using anti-CD3/anti-CD28 antibodies. The phenotype of the cells was determined by staining cells for flow cytometry analysis with anti-CD3, anti-CD4, anti-CD8, anti-CD19, anti-CD45RA, anti-CD45RO, and anti-CCR7 antibodies. Terminal effector memory cells are defined as CD45RA^+CD45RO^−CCR7^−. T effector memory cells are defined as CD45RA^−CD45RO^+CCR7^−. T central memory cells are defined as CD45RA^−CD45RO^+CCR7^+. Naïve T cells are defined as CD45RA^+CD45RO^−CCR7^+. Diversity of the T cell receptor repertoire was assessed by flow cytometry.

[2] = system: EGFPluc+ iC9-T cells; assay: T cell bioluminescence (IVIS) in NSG mice after rimiducid; assay type: in vivo
Description: (§1) In vivo studies were performed by i.v. injection of control or gene-modified T cells co-expressing luciferase into NSG mice. 1×10^7 EGFPluc+ iC9-T cells were infused into NSG mice. T cell bioluminescence was measured at 2 and 24 hours after infusion, followed by i.p. injection of a titrated dose of rimiducid or placebo (control drug). The animals were administered either control drug (temsirolimus; 1 mg/kg), rimiducid (0.001-1 mg/kg), or vehicle. Remaining T cell bioluminescence was measured at 6, 24 and 48 hours after drug administration. Bioluminescent imaging and flow cytometry were performed to assess in vivo depletion following iC9 activation.
The maximal elimination effect in the kill switch induced by rimiducid was reached 24 hours post drug administration. The values for average radiance were normalized to the initial radiance in each mouse using the formula: D Average radiance=100*[Timepoint “X” radiance]/[Timepoint “0” radiance]. Error bars represents S.E.M. Two-way ANOVA test was used to assess statistical significance of differences in T cell radiance between multiple groups at different time points.

[3] = system: CD3+CD19+ cells (iC9+ T cells); assay: flow cytometric analysis of cells harvested from spleens 48 h post drug treatment; assay type: in vivo, NSG mice; conditions: for reduction of CD3+CD19+ cells in spleen: 48 h, compared to vehicle
Description: as §1
FIG. 18 depicts a flow cytometric analysis of cells harvested from spleens 48 h post drug treatment.

[4] = system: CD3+CD19+ T cells; assay: rimiducid treatment of patients engrafted with AOS-1 to control GvHD; assay type: in vivo, human
Description: Engraftment and persistence of the donor modified T cells were measured by co-expression of CD3 and CD19 by flow cytometry. Endogenous and gene-modified T cells were also phenotyped for CD4:CD8 ratios, memory cell composition (TN, TCM, TEM, TEMRA; CD45RA and CD62L) and T cell receptor Vβ diversity.

[5] = system: WT1, PRAME, MAGE, NE and PR3; assay: IFN-γ ELIspot for LAA-specific T cells against peptide pools; assay type: cell-based, human; conditions: 10 nM rimiducid
Description: PBMCs were mixed with pre-warmed (37° C.) cell culture media and centrifuged cells at […] for 10′ at 4° C. Cells were resuspended and counted using Cellometer. Cells were then centrifuged again at 1200 rpm for 10′. The cells were then resuspended in culture media at a concentration of 1×10^6/mL and 100 μL were added per well. 100 μL of 2X peptide stock or PHA were added to the desired wells. The plates were mixed gently for 2′. The plates were transferred to a 37° C. incubator with 5% CO2 and incubated for 18-24 hours. 100 μL capture anti-IFNγ antibody was added to each PBS-pre wetted well. The plates were then incubated at 4±3° C. overnight. After incubation the plates were washed 3 times with 200 μL D-PBS. Unbound sites were blocked with 100 μL D-PBS containing 10% culture media for 120+15 minutes at room temperature in a BSC. The plates were then washed 3 times with 200 μL D-PBS. 200 μL D-PBS were added into the wells. The plates were left at room temperature until the cells are ready. When cells were ready plates were removed from the incubator and the wells rinsed 2 times with tap water. The plates were then washed 5 times with D-PBS, containing 0.05% Tween 20. The wells and well bottoms were rinsed with distilled water. […] Plates were left to dry at room temperature before reading on an ELISpot reader.

[6] = system: AOS-1 cells; assay: speed of elimination of low-, medium- and high-CD19 populations in mice after rimiducid (FIG. 27); assay type: in vivo; conditions: 5 mg/kg rimiducid on day 0, 1.5×10^7 AOS-1 cells on day −1
Source text: Figures are means from 40 mice.
Further experiments looked at the speed of elimination of low-CD19, medium-CD19 and high-CD19 populations after administration of rimiducid.

[7] = system: genetically-modified T cells; assay: rimiducid dose that eliminates infused genetically-modified T cells; assay type: in vivo; conditions: cells infused at 1.5×10^7 cells/kg
[8] = human, in vivo; cited from earlier work

## CC[C@H](C(=O)N1CCCC[C@H]1C(=O)O[C@H](CCc1ccc(OC)c(OC)c1)c1cccc(OCC(=O)NCCNC(=O)COc2cccc([C@@H](CCc3ccc(OC)c(OC)c3)OC(=O)[C@@H]3CCCCN3C(=O)[C@@H](CC)c3cc(OC)c(OC)c(OC)c3)c2)c1)c1cc(OC)c(OC)c(OC)c1 (relative stereo) [rimiducid, 2-Piperidinecarboxylic acid, 1-[(2S)-1-oxo-2-(3,4,5-trimethoxyphenyl)butyl]-, 1,2-ethanediylbis[imino(2-oxo-2,1-ethanediyl)oxy-3,1-phenylene[(1R)-3-(3,4-dimethoxyphenyl)propylidene]] ester, [2S-[1(R*),2R*[S*[S*[1(R*),2R*]]]]]-(9CI)]
[1]; all fractions after reactivation with anti-CD3/anti-CD28
  apoptosis: over 90%
[1]; high MFI of CD19 cells, 10 nM rimiducid, within 4 hours
  cells gone through apoptosis: more than 95%
[1]; after activation in vitro
  CD19+ specific killing: 97%
[1]; before activation
  CD19+ specific killing: 46%
[1]; sorted high CD19 cells
  median killing efficacy: 92%
[1]; sorted low CD19 cells
  median killing efficacy: 69%
[1]; sorted medium CD19 cells
  median killing efficacy: 87%
[1]; unstimulated high iC9-ΔCD19 cells
  killing: 86%
[1]; unstimulated low iC9-ΔCD19 cells
  killing: 50%
[1]; unstimulated medium iC9-ΔCD19 cells
  killing: 76%
[2]; 0.01 mg/kg i.p., 6-hour
  reduction of relative total flux: 82.5%
[2]; 0.01 mg/kg i.p., 24-hour
  reduction of relative total flux: 90.5%
[2]; 0.01 mg/kg i.p., 48-hour
  reduction of relative total flux: 90.5%
[2]; 0.1 mg/kg i.p., 6-hour
  reduction of relative total flux: 92.5%
[2]; 0.1 mg/kg i.p., 24-hour
  reduction of relative total flux: 95.5%
[2]; 0.1 mg/kg i.p., 48-hour
  reduction of relative total flux: 95.3%
[2]; 1 mg/kg i.p., 6-hour
  reduction of relative total flux: 96%
[2]; 1 mg/kg i.p., 24-hour
  reduction of relative total flux: 98.1%
[2]; 1 mg/kg i.p., 48-hour
  reduction of relative total flux: 98.1%
[2]; post drug administration
  time at which maximal elimination effect was reached: 24 h
[3]; 0.01 mg/kg
  reduction of CD3+CD19+ cells in spleen: 99.6%
[3]; 0.1 mg/kg
  reduction of CD3+CD19+ cells in spleen: 98.6%
[3]; 1 mg/kg
  reduction of CD3+CD19+ cells in spleen: 89.6%
[3]; treated groups, down to 0.001 mg/kg
  MFI of CD19 in CD3+CD19+ cells: dose dependent decrease
[4]; patients treated with rimiducid
  course of CD3+CD19+ T cells and GvHD after rimiducid: recovered without further instances of GvHD
[4]; three patients with GvHD
  decrease of CD3+CD19+ T cells in the peripheral blood: 62±12%
[5]
  LAA-reactivity on exposure to rimiducid: greatly diminished
[6]
  elimination of CD19-high cells: eliminated within half an hour
  elimination of CD19-low cells: declined more slowly
  elimination of CD19-medium cells: fell to near-zero within an hour
[7]
  dose that can eliminate cells: 0.4 mg/kg
[8]
  safety in healthy volunteers: proven safe in healthy volunteers
